PubChem BioAssay AID2060326 (Molecular Pharmacology Branch, DTP, NCI, 2025)

Tested on: MDA-MB-468 multi-cell spheroids, viability
Assay: Anticancer human tumor MDA-MB-468 cell line growth inhibition [IpAb];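 further: spheroids exposed to agents for seven days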;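 on viability, T/C: 100% = DMSO vehicle control viability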
Conditions: for IC50: curve of first compound; for viability, T/C: stronger effect = lower value
Description: Combinatorial screen of targeted agents with ipatasertib and abemaciclib in multi-cell type tumor spheroids
A high-throughput screen of multi-cell type tumor spheroids was designed to identify active combinations of targeted small molecules and ipatasertib or abemaciclib. Complex spheroids include a stromal component modeled by human endothelial cells (HUVEC) and fibroblasts modeled by human mesenchymal stem cells (MSCs). The concentration ranges selected for each drug and investigational agent were based upon clinically achievable concentrations if the clinical Cmax of the agent was known.
Compounds. The drugs and investigational agents: ipatasertib (NSC767898), abemaciclib(NSC768073), selumetinib (NSC741078), trametinib (758246), adavosertib (NSC754352), everolimus (NSC733504), sapanisertib (NSC764658), vemurafenib (NSC761431), venetoclax (NSC766270), copanlisib (NSC809693), apelisib (NSC765974), palbociblib (NSC758247), vemurafenib (NSC761431), dabrafenib (NSC764134), ravoxertinib (NSC781343), BMS-387032 (NSC767048), sotorasib (NSC818433), talazoparib (NSC767125) and afursertib (NSC778305), were obtained from the National Cancer Institute (NCI) Developmental Therapeutics Program Chemical Repository. The FDA-approved anticancer drug set is available from the NCI Developmental Therapeutics Program. […] The stock solutions were prepared in dimethyl sulfoxide (DMSO, Sigma-Aldrich, St. Louis, MO, cat. D2650) at 800-fold the tested concentration and stored at -70 degrees C prior to their use. All drugs and investigational agents were tested over a range starting from a high concentration at or near the clinical Cmax and decreasing in half-log increments. If the clinical Cmax for an agent had not been determined, the highest concentration tested was 10 microM.
NCI60 Cell Culture. NCI60 cell lines were obtained from the NCI Developmental Therapeutics Program Tumor Repository. For each lot of cells, the Repository performed Applied Biosystems AmpFLSTR Identifiler testing with PCR amplification to confirm consistency with the published Identifier STR profile for each cell line. Cells were kept in continuous culture for no more than 20 passages. The optimal seeding densities for each of the cell lines at each time point assessed were determined prior to performing the concentration response studies. Briefly, the NCI60 human tumor lines were grown as monolayers in RPMI 1640 medium supplemented with 10% FBS and 2 mmol/L L-glutamine.
An additional 9 lines were from the NCI60 cell line panel including MDA-MB-231 breast carcinoma, MDA-MB-468 breast carcinoma, MCF7 breast carcinoma, Hs578T breast carcinoma, MALME-3M melanoma, SK-MEL-2 melanoma, SK-OV-3 ovarian carcinoma, DU-145 prostate carcinoma, PC-3 prostate carcinoma, all cell lines along with major genetic alterations are listed on Table 2. Pooled donor human umbilical vein endothelial cells (HUVEC, Lonza, cat. CC-2519) and human mesenchymal stem cells (hMSC, Lonza, cat. PT-2501) were purchased from Lonza (Walkersville, MD).
PDMR cell lines were grown in complete medium (DC medium): Dulbecco's modified Eagle's medium (DMEM)/F12 supplemented with 5% fetal bovine serum (FBS), 2 mM L-glutamine, 100 U/mL penicillin and 100 µg/ml streptomycin, 0.4 µg/ml hydrocortisone, 10 ng/ml epidermal growth factor (EGF) recombinant human protein, 24 µg/mL adenine, and 0.1 mg/mL primocin. During culture from frozen stock vials, PDMR cells were cultured in the same medium containing 10 µM Y-27632 (see Table 3). The PDCs were cultured in complete DMEM/F12 media without 10 microM Y-27632 dihydrochloride for at least two passages prior to the screen. The pooled donor HUVEC and hMSC were cultured in endothelial cell growth medium 2 (PromoCell, Heidelberg, Germany, cat. C-22011) and mesenchymal stem cell growth medium 2 (PromoCell, cat. C-28009), respectively. For all experiments, HUVEC and hMSC were used at passages </=5.
[…]

[1] = second compound 0.1 µM, first compound 0.0316 µM
[2] = second compound 0.1 µM, first compound 0.1 µM
[3] = second compound 0.1 µM, first compound 0.316 µM
[4] = second compound 0.1 µM, first compound 1 µM
[5] = second compound 0.316 µM, first compound 0.0316 µM
[6] = second compound 0.316 µM, first compound 0.1 µM
[7] = second compound 0.316 µM, first compound 0.316 µM
[8] = second compound 0.316 µM, first compound 1 µM
[9] = second compound 1 µM, first compound 0.0316 µM
[10] = second compound 1 µM, first compound 0.1 µM
[11] = second compound 1 µM, first compound 0.316 µM
[12] = second compound 1 µM, first compound 1 µM

C=CCn1c(=O)c2cnc(Nc3ccc(N4CCN(C)CC4)cc3)nc2n1-c1cccc(C(C)(C)O)n1 + CC(C)NCC(C(=O)N1CCN(c2ncnc3c2C(C)CC3O)CC1)c1ccc(Cl)cc1
IC50 (second compound 0.1 µM): 383 nM
IC50 (second compound 0.316 µM): 212 nM
IC50 (second compound 1 µM): 60.2 nM
IC50 (second compound 3.16 µM): < 31.6 nM
IC50 (second compound 10 µM): < 31.6 nM
viability, T/C [1]: 101%
viability, T/C [2]: 89.3%
viability, T/C [3]: 59.5%
viability, T/C [4]: 5.21%
viability, T/C (second compound 0.1 µM, first compound 3.16 µM): 3.03%
viability, T/C (second compound 0.1 µM, first compound 10 µM): 2.74%
viability, T/C [5]: 78.6%
viability, T/C [6]: 63.7%
viability, T/C [7]: 42.6%
viability, T/C [8]: 2.96%
viability, T/C (second compound 0.316 µM, first compound 3.16 µM): 3.13%
viability, T/C (second compound 0.316 µM, first compound 10 µM): 2.21%
viability, T/C [9]: 59.4%
viability, T/C [10]: 40.8%
viability, T/C [11]: 25.7%
viability, T/C [12]: 2.27%
viability, T/C (second compound 1 µM, first compound 3.16 µM): 2.93%
viability, T/C (second compound 1 µM, first compound 10 µM): 1.68%
viability, T/C (second compound 3.16 µM, first compound 0.0316 µM): 32.1%
viability, T/C (second compound 3.16 µM, first compound 0.1 µM): 27.2%
viability, T/C (second compound 3.16 µM, first compound 0.316 µM): 15.7%
viability, T/C (second compound 3.16 µM, first compound 1 µM): 1.82%
viability, T/C (second compound 3.16 µM, first compound 3.16 µM): 3.18%
viability, T/C (second compound 3.16 µM, first compound 10 µM): 1.47%
viability, T/C (second compound 10 µM, first compound 0.0316 µM): 17.8%
viability, T/C (second compound 10 µM, first compound 0.1 µM): 14%
viability, T/C (second compound 10 µM, first compound 0.316 µM): 9.24%
viability, T/C (second compound 10 µM, first compound 1 µM): 1.81%
viability, T/C (second compound 10 µM, first compound 3.16 µM): 2.55%
viability, T/C (second compound 10 µM, first compound 10 µM): 1.3%

Cn1cnc2c(F)c(Nc3ccc(Br)cc3Cl)c(C(=O)NOCCO)cc21 + CC(C)NCC(C(=O)N1CCN(c2ncnc3c2C(C)CC3O)CC1)c1ccc(Cl)cc1
IC50 (second compound 0.1 µM): 435 nM
IC50 (second compound 0.316 µM): 54.8 nM
IC50 (second compound 1 µM): < 9.49 nM
IC50 (second compound 3.16 µM): < 9.49 nM
IC50 (second compound 10 µM): < 9.49 nM
viability, T/C (second compound 0.1 µM, first compound 0.00949 µM): 72.6%
viability, T/C (second compound 0.1 µM, first compound 0.03 µM): 72.2%
viability, T/C (second compound 0.1 µM, first compound 0.0949 µM): 63.4%
viability, T/C (second compound 0.1 µM, first compound 0.3 µM): 53.6%
viability, T/C (second compound 0.1 µM, first compound 0.949 µM): 41.2%
viability, T/C (second compound 0.1 µM, first compound 3 µM): 21.2%
viability, T/C (second compound 0.316 µM, first compound 0.00949 µM): 66.3%
viability, T/C (second compound 0.316 µM, first compound 0.03 µM): 49%
viability, T/C (second compound 0.316 µM, first compound 0.0949 µM): 46.7%
viability, T/C (second compound 0.316 µM, first compound 0.3 µM): 35%
viability, T/C (second compound 0.316 µM, first compound 0.949 µM): 28.8%
viability, T/C (second compound 0.316 µM, first compound 3 µM): 8.58%
viability, T/C (second compound 1 µM, first compound 0.00949 µM): 50.4%
viability, T/C (second compound 1 µM, first compound 0.03 µM): 38.7%
viability, T/C (second compound 1 µM, first compound 0.0949 µM): 41.4%
viability, T/C (second compound 1 µM, first compound 0.3 µM): 24.2%
viability, T/C (second compound 1 µM, first compound 0.949 µM): 16.6%
viability, T/C (second compound 1 µM, first compound 3 µM): 3.5%
viability, T/C (second compound 3.16 µM, first compound 0.00949 µM): 34.8%
viability, T/C (second compound 3.16 µM, first compound 0.03 µM): 28.4%
viability, T/C (second compound 3.16 µM, first compound 0.0949 µM): 22.2%
viability, T/C (second compound 3.16 µM, first compound 0.3 µM): 18%
viability, T/C (second compound 3.16 µM, first compound 0.949 µM): 5.62%
viability, T/C (second compound 3.16 µM, first compound 3 µM): 0.63%
viability, T/C (second compound 10 µM, first compound 0.00949 µM): 13.7%
viability, T/C (second compound 10 µM, first compound 0.03 µM): 13.5%
viability, T/C (second compound 10 µM, first compound 0.0949 µM): 7.27%
viability, T/C (second compound 10 µM, first compound 0.3 µM): 3.11%
viability, T/C (second compound 10 µM, first compound 0.949 µM): 0.84%
viability, T/C (second compound 10 µM, first compound 3 µM): 0.43%

COc1c(OCCCN2CCOCC2)ccc2c3n(c(=NC(=O)c4cnc(N)nc4)nc12)CCN3 + CCN1CCN(Cc2ccc(Nc3ncc(F)c(-c4cc(F)c5nc(C)n(C(C)C)c5c4)n3)nc2)CC1
IC50 (second compound 0.01 µM): 145 nM
IC50 (second compound 0.0316 µM): 109 nM
IC50 (second compound 0.1 µM): 91.7 nM
IC50 (second compound 0.316 µM): 111 nM
IC50 (second compound 1 µM): 75.4 nM
viability, T/C (second compound 0.01 µM, first compound 0.00316 µM): 101%
viability, T/C (second compound 0.01 µM, first compound 0.01 µM): 79.4%
viability, T/C (second compound 0.01 µM, first compound 0.0316 µM): 78.6%
viability, T/C (second compound 0.01 µM, first compound 0.1 µM): 66.9%
viability, T/C (second compound 0.01 µM, first compound 0.316 µM): 20.9%
viability, T/C (second compound 0.01 µM, first compound 1 µM): 3.88%
viability, T/C (second compound 0.0316 µM, first compound 0.00316 µM): 93%
viability, T/C (second compound 0.0316 µM, first compound 0.01 µM): 85.6%
viability, T/C (second compound 0.0316 µM, first compound 0.0316 µM): 73.5%
viability, T/C (second compound 0.0316 µM, first compound 0.1 µM): 54.7%
viability, T/C (second compound 0.0316 µM, first compound 0.316 µM): 21.9%
viability, T/C (second compound 0.0316 µM, first compound 1 µM): 3.58%
viability, T/C (second compound 0.1 µM, first compound 0.00316 µM): 109%
viability, T/C (second compound 0.1 µM, first compound 0.01 µM): 93.8%
viability, T/C [1]: 78.4%
viability, T/C [2]: 50.1%
viability, T/C [3]: 16.1%
viability, T/C [4]: 3.39%
viability, T/C (second compound 0.316 µM, first compound 0.00316 µM): 80.6%
viability, T/C (second compound 0.316 µM, first compound 0.01 µM): 98.7%
viability, T/C [5]: 86.8%
viability, T/C [6]: 50.8%
viability, T/C [7]: 21.2%
viability, T/C [8]: 6.79%
viability, T/C (second compound 1 µM, first compound 0.00316 µM): 75%
viability, T/C (second compound 1 µM, first compound 0.01 µM): 73.6%
viability, T/C [9]: 59.7%
viability, T/C [10]: 49%
viability, T/C [11]: 21%
viability, T/C [12]: 7.2%
